From patent publication US11780893B2, “Kv1.3 blockers” (Zealand Pharma A/S, priority 2019, dated 2023)
Bridge positions count the residues as written; N and C are the ends. Square brackets hold non-standard residues; d marks the D form. Peptide text beside a SMILES is read from it. Nle = CCCC[C@H](N)C(=O)O

Biological target: T1, human Kv1.3 voltage-gated K+ channel (Homo sapiens, UniProt P22001)
T1 construct: host or cells: CHO-DUKX
Experiment: cell-based
Conditions: inhibition of thallium flux, CHO-DUKX cells with human Kv1.3; read-out: IC50

T1 sequence (P22001 whole entry): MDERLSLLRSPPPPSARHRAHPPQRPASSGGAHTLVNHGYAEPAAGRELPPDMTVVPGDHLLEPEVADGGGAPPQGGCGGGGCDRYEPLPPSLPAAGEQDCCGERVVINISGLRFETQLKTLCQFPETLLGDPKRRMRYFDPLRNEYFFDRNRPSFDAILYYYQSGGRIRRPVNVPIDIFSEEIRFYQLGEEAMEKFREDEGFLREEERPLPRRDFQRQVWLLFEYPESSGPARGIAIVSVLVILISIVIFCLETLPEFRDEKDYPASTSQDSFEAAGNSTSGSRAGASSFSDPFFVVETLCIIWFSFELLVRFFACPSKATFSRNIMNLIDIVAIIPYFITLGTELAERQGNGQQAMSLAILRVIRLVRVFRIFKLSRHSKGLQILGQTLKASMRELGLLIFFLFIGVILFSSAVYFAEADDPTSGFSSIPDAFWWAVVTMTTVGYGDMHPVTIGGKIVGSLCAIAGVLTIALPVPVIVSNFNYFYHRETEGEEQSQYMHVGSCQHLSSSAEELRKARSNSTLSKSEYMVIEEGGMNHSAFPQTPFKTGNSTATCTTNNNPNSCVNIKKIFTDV

Row | Structure (SMILES) | IC50 [nM]
1 | CCCC[C@H](NC(=O)[C@@H]1CCCN1)C(=O)N[C@@H](CCC(=O)O)C(=O)N[C@@H](CCCC)C(=O)N[C@@H](CCCNC(=N)N)C(=O)N[C@H]1CSSC[C@@H]2NC(=O)[C@H](CCCCN)NC(=O)CNC(=O)[C@H](Cc3ccccc3)NC(=O)[C@H]([C@@H](C)CC)NC(=O)[C@H](CO)NC(=O)CNC(=O)[C@H]([C@@H](C)CC)NC(=O)[C@H](C)NC(=O)[C@H](C)NC(=O)[C@H](CC(C)C)NC(=O)[C@@H]3CSSC[C@@H](C(=O)N[C@@H](Cc4ccc(O)cc4)C(=O)N4CCC[C@H]4C(=O)N[C@@H](CCCNC(=N)N)C(=O)N[C@@H](CCCCN)C(=O)N[C@@H](CO)C(=O)O)NC(=O)[C@H](CCCCN)NC(=O)[C@H](CSSC[C@H](NC(=O)[C@H](CCC(=O)O)NC(=O)[C@H](C(C)C)NC(=O)[C@H](CO)NC(=O)[C@H](C)NC(=O)[C@H](CO)NC1=O)C(=O)N[C@@H](CCCCN)C(=O)N[C@@H](CCC(N)=O)C(=O)N[C@@H](CCCCN)C(=O)N3)NC(=O)[C@H](CCCCN)NC(=O)[C@H](CCCCN)NC(=O)[C@H](CC(N)=O)NC(=O)[C@H](CCCC)NC2=O [Compound 127] (H-P[Nle]E[Nle]RCSASVECKQKCLAAIGSIFGKC[Nle]NKKCKCYPRKS-OH; disulfide 6-27, 12-32, 16-34) | 0.562
2 | CCCC[C@H](NC(=O)[C@@H]1CCCN1)C(=O)N[C@@H](CCC(=O)O)C(=O)N[C@@H](CCCC)C(=O)N[C@@H](CCCNC(=N)N)C(=O)N[C@H]1CSSC[C@@H]2NC(=O)[C@H](CCCCN)NC(=O)CNC(=O)[C@H](Cc3ccccc3)NC(=O)[C@H]([C@@H](C)CC)NC(=O)[C@H](CO)NC(=O)CNC(=O)[C@H]([C@@H](C)CC)NC(=O)[C@H](C)NC(=O)[C@H](C)NC(=O)[C@H](CC(C)C)NC(=O)[C@@H]3CSSC[C@@H](C(=O)N[C@@H](Cc4ccc(O)cc4)C(=O)N4CCC[C@H]4C(=O)N[C@@H](CCCNC(=N)N)C(=O)N[C@@H](Cc4ccccc4)C(=O)N[C@@H](CCC(=O)O)C(=O)O)NC(=O)[C@H](CCCCN)NC(=O)[C@H](CSSC[C@H](NC(=O)[C@H](CCC(=O)O)NC(=O)[C@H](C(C)C)NC(=O)[C@H](CO)NC(=O)[C@H](C)NC(=O)[C@H](CO)NC1=O)C(=O)N[C@@H](CCCCN)C(=O)N[C@@H](CCC(N)=O)C(=O)N[C@@H](CCCCN)C(=O)N3)NC(=O)[C@H](CCCCN)NC(=O)[C@H](CCCCN)NC(=O)[C@H](CC(N)=O)NC(=O)[C@H](CCCC)NC2=O [Compound 128] (H-P[Nle]E[Nle]RCSASVECKQKCLAAIGSIFGKC[Nle]NKKCKCYPRFE-OH; disulfide 6-27, 12-32, 16-34) | 7.18
3 | CCCC[C@H](NC(=O)[C@@H]1CCCN1)C(=O)N[C@@H](CCC(=O)O)C(=O)N[C@@H](CCCC)C(=O)N[C@@H](CCCNC(=N)N)C(=O)N[C@H]1CSSC[C@@H]2NC(=O)[C@H](CCCCN)NC(=O)CNC(=O)[C@H](Cc3ccccc3)NC(=O)[C@H]([C@@H](C)CC)NC(=O)[C@H](CO)NC(=O)CNC(=O)[C@H]([C@@H](C)CC)NC(=O)[C@H](C)NC(=O)[C@H](C)NC(=O)[C@H](CC(C)C)NC(=O)[C@@H]3CSSC[C@@H](C(=O)N[C@@H](Cc4ccc(O)cc4)C(=O)N4CCC[C@H]4C(=O)N[C@@H](CCCNC(=N)N)C(=O)N[C@@H](Cc4c[nH]cn4)C(=O)N[C@@H](CCCNC(=N)N)C(=O)O)NC(=O)[C@H](CCCCN)NC(=O)[C@H](CSSC[C@H](NC(=O)[C@H](CCC(=O)O)NC(=O)[C@H](C(C)C)NC(=O)[C@H](CO)NC(=O)[C@H](C)NC(=O)[C@H](CO)NC1=O)C(=O)N[C@@H](CCCCN)C(=O)N[C@@H](CCC(N)=O)C(=O)N[C@@H](CCCCN)C(=O)N3)NC(=O)[C@H](CCCCN)NC(=O)[C@H](CCCCN)NC(=O)[C@H](CC(N)=O)NC(=O)[C@H](CCCC)NC2=O [Compound 129] (H-P[Nle]E[Nle]RCSASVECKQKCLAAIGSIFGKC[Nle]NKKCKCYPRHR-OH; disulfide 6-27, 12-32, 16-34) | 0.143
4 | CCCC[C@H](NC(=O)[C@@H]1CCCN1)C(=O)N[C@@H](CCC(=O)O)C(=O)N[C@@H](CCCC)C(=O)N[C@@H](CCCNC(=N)N)C(=O)N[C@H]1CSSC[C@@H]2NC(=O)[C@H](CCCCN)NC(=O)CNC(=O)[C@H](Cc3ccccc3)NC(=O)[C@H]([C@@H](C)CC)NC(=O)[C@H](CO)NC(=O)CNC(=O)[C@H]([C@@H](C)CC)NC(=O)[C@H](C)NC(=O)[C@H](C)NC(=O)[C@H](CC(C)C)NC(=O)[C@@H]3CSSC[C@@H](C(=O)N[C@@H](Cc4ccc(O)cc4)C(=O)N4CCC[C@H]4C(=O)N[C@@H](CCCNC(=N)N)C(=O)N[C@@H](C)C(=O)N[C@@H](CCCCN)C(=O)O)NC(=O)[C@H](CCCCN)NC(=O)[C@H](CSSC[C@H](NC(=O)[C@H](CCC(=O)O)NC(=O)[C@H](C(C)C)NC(=O)[C@H](CO)NC(=O)[C@H](C)NC(=O)[C@H](CO)NC1=O)C(=O)N[C@@H](CCCCN)C(=O)N[C@@H](CCC(N)=O)C(=O)N[C@@H](CCCCN)C(=O)N3)NC(=O)[C@H](CCCCN)NC(=O)[C@H](CCCCN)NC(=O)[C@H](CC(N)=O)NC(=O)[C@H](CCCC)NC2=O [Compound 130] (H-P[Nle]E[Nle]RCSASVECKQKCLAAIGSIFGKC[Nle]NKKCKCYPRAK-OH; disulfide 6-27, 12-32, 16-34) | 0.529
5 | CCCC[C@H](NC(=O)[C@@H]1CCCN1)C(=O)N[C@@H](CCC(=O)O)C(=O)N[C@@H](CCCC)C(=O)N[C@@H](CCCNC(=N)N)C(=O)N[C@H]1CSSC[C@@H]2NC(=O)[C@H](CCCCN)NC(=O)CNC(=O)[C@H](Cc3ccccc3)NC(=O)[C@H]([C@@H](C)CC)NC(=O)[C@H](CO)NC(=O)CNC(=O)[C@H]([C@@H](C)CC)NC(=O)[C@H](C)NC(=O)[C@H](C)NC(=O)[C@H](CC(C)C)NC(=O)[C@@H]3CSSC[C@@H](C(=O)N[C@@H](Cc4ccc(O)cc4)C(=O)N4CCC[C@H]4C(=O)N[C@@H](CCCNC(=N)N)C(=O)N[C@@H](CO)C(=O)N[C@H](C(=O)O)[C@@H](C)O)NC(=O)[C@H](CCCCN)NC(=O)[C@H](CSSC[C@H](NC(=O)[C@H](CCC(=O)O)NC(=O)[C@H](C(C)C)NC(=O)[C@H](CO)NC(=O)[C@H](C)NC(=O)[C@H](CO)NC1=O)C(=O)N[C@@H](CCCCN)C(=O)N[C@@H](CCC(N)=O)C(=O)N[C@@H](CCCCN)C(=O)N3)NC(=O)[C@H](CCCCN)NC(=O)[C@H](CCCCN)NC(=O)[C@H](CC(N)=O)NC(=O)[C@H](CCCC)NC2=O [Compound 133] (H-P[Nle]E[Nle]RCSASVECKQKCLAAIGSIFGKC[Nle]NKKCKCYPRST-OH; disulfide 6-27, 12-32, 16-34) | 1.1
6 | CCCC[C@H](NC(=O)[C@@H]1CCCN1)C(=O)N[C@@H](CCC(=O)O)C(=O)N[C@@H](CCCC)C(=O)N[C@@H](CCCNC(=N)N)C(=O)N[C@H]1CSSC[C@@H]2NC(=O)[C@H](CCCCN)NC(=O)CNC(=O)[C@H](Cc3ccccc3)NC(=O)[C@H]([C@@H](C)CC)NC(=O)[C@H](CO)NC(=O)CNC(=O)[C@H]([C@@H](C)CC)NC(=O)[C@H](C)NC(=O)[C@H](C)NC(=O)[C@H](CC(C)C)NC(=O)[C@@H]3CSSC[C@@H](C(=O)N[C@@H](Cc4ccc(O)cc4)C(=O)N4CCC[C@H]4C(=O)N[C@@H](CCCNC(=N)N)C(=O)N[C@@H](CCCNC(=N)N)C(=O)N[C@@H](Cc4ccc(O)cc4)C(=O)O)NC(=O)[C@H](CCCCN)NC(=O)[C@H](CSSC[C@H](NC(=O)[C@H](CCC(=O)O)NC(=O)[C@H](C(C)C)NC(=O)[C@H](CO)NC(=O)[C@H](C)NC(=O)[C@H](CO)NC1=O)C(=O)N[C@@H](CCCCN)C(=O)N[C@@H](CCC(N)=O)C(=O)N[C@@H](CCCCN)C(=O)N3)NC(=O)[C@H](CCCCN)NC(=O)[C@H](CCCCN)NC(=O)[C@H](CC(N)=O)NC(=O)[C@H](CCCC)NC2=O [Compound 134] (H-P[Nle]E[Nle]RCSASVECKQKCLAAIGSIFGKC[Nle]NKKCKCYPRRY-OH; disulfide 6-27, 12-32, 16-34) | 0.21
7 | CCCC[C@H](NC(=O)[C@@H]1CCCN1)C(=O)N[C@@H](CCC(=O)O)C(=O)N[C@@H](CCCC)C(=O)N[C@@H](CCCNC(=N)N)C(=O)N[C@H]1CSSC[C@@H]2NC(=O)[C@H](CCCCN)NC(=O)CNC(=O)[C@H](Cc3ccccc3)NC(=O)[C@H]([C@@H](C)CC)NC(=O)[C@H](CO)NC(=O)CNC(=O)[C@H]([C@@H](C)CC)NC(=O)[C@H](C)NC(=O)[C@H](C)NC(=O)[C@H](CC(C)C)NC(=O)[C@@H]3CSSC[C@@H](C(=O)N[C@@H](Cc4ccc(O)cc4)C(=O)N4CCC[C@H]4C(=O)N[C@@H](CCCNC(=N)N)C(=O)O)NC(=O)[C@H](CCCCN)NC(=O)[C@H](CSSC[C@H](NC(=O)[C@H](CCC(=O)O)NC(=O)[C@H](C(C)C)NC(=O)[C@H](CO)NC(=O)[C@H](CO)NC(=O)[C@H](CO)NC1=O)C(=O)N[C@@H](CCCCN)C(=O)N[C@@H](CCC(N)=O)C(=O)N[C@@H](CCCCN)C(=O)N3)NC(=O)[C@H](CCCCN)NC(=O)[C@H](CCCCN)NC(=O)[C@H](CC(N)=O)NC(=O)[C@H](CCCC)NC2=O [Compound 135] (H-P[Nle]E[Nle]RCSSSVECKQKCLAAIGSIFGKC[Nle]NKKCKCYPR-OH; disulfide 6-27, 12-32, 16-34) | 0.336
8 | CCCC[C@H](NC(=O)[C@@H]1CCCN1)C(=O)N[C@@H](CCC(=O)O)C(=O)N[C@@H](CCCC)C(=O)N[C@@H](CCCNC(=N)N)C(=O)N[C@H]1CSSC[C@@H]2NC(=O)[C@H](CCCCN)NC(=O)CNC(=O)[C@H](Cc3ccccc3)NC(=O)[C@H]([C@@H](C)CC)NC(=O)[C@H](CO)NC(=O)CNC(=O)[C@H]([C@@H](C)CC)NC(=O)[C@H](C)NC(=O)[C@H](C)NC(=O)[C@H](CC(C)C)NC(=O)[C@@H]3CSSC[C@@H](C(=O)N[C@@H](Cc4ccc(O)cc4)C(=O)N4CCC[C@H]4C(=O)N[C@@H](CCCNC(=N)N)C(=O)O)NC(=O)[C@H](CCCCN)NC(=O)[C@H](CSSC[C@H](NC(=O)[C@H](CCC(=O)O)NC(=O)[C@H](C(C)C)NC(=O)[C@H](CO)NC(=O)[C@H](CC(C)C)NC(=O)[C@H](CO)NC1=O)C(=O)N[C@@H](CCCCN)C(=O)N[C@@H](CCC(N)=O)C(=O)N[C@@H](CCCCN)C(=O)N3)NC(=O)[C@H](CCCCN)NC(=O)[C@H](CCCCN)NC(=O)[C@H](CC(N)=O)NC(=O)[C@H](CCCC)NC2=O [Compound 136] (H-P[Nle]E[Nle]RCSLSVECKQKCLAAIGSIFGKC[Nle]NKKCKCYPR-OH; disulfide 6-27, 12-32, 16-34) | 6.24
